Consider seven molecules from patent US10632101B2, “Methods and compositions for supporting endogenous systems related to life span” (USANA Health Sciences, Inc., priority 2016, dated 2020).

For experiment [1], the target named is T1, mTOR (Homo sapiens, UniProt P42345).
T1 construct: host or cells: isolated cells in culture (not specified)
To be noted: cited from earlier work; for mTOR inhibition: applied to isolated cells in culture.

The target in experiment [2] is T2, human PPARγ (Homo sapiens, UniProt P37231).
T2 construct: expressed in transfected cells; host or cells: CHO
T2 sequence (P37231 238-503 limits assumed): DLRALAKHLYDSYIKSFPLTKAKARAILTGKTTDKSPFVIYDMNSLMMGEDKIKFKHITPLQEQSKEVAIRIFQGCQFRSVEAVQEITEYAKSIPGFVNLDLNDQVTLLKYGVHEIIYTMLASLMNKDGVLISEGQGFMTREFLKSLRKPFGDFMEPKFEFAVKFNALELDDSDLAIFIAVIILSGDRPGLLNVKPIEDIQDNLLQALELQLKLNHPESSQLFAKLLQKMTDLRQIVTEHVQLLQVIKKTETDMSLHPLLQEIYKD
The experiment is described as follows: PPARγ reporter cell assay, agonist mode. The class given is cell-based.

The target of experiment [3] is T3, human PPARδ (Homo sapiens, UniProt Q03181).
T3 construct: expressed in transfected cells; host or cells: CHO
T3 sequence (Q03181 211-439 limits assumed): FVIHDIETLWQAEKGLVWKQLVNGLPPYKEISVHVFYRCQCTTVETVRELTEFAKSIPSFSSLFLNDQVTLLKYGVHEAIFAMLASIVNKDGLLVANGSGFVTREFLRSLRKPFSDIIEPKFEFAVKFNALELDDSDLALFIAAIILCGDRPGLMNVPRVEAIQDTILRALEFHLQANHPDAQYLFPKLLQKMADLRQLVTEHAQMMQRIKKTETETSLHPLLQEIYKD
Nature of the experiment: PPARδ reporter cell assay, agonist mode. Type of experiment: cell-based.

In experiment [4] the test system is human NF-κB. Nature of the experiment: NF-κB reporter cell assay, antagonist mode. The class given is cell-based.
Experiment [5] addresses T4, human PPARα (Homo sapiens, UniProt Q07869).
T4 construct: expressed in transfected cells; host or cells: CHO
T4 sequence (Q07869 239-466 limits assumed): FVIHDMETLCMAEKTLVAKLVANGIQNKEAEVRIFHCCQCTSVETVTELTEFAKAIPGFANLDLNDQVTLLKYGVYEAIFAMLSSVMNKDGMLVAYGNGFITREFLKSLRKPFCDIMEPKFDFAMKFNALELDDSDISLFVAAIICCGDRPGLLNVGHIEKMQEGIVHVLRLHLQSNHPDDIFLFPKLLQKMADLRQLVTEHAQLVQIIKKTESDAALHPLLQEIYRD
The experiment is described as follows: PPARα reporter cell assay, agonist mode. Type of experiment: cell-based.

The subject of experiment [6] is C. elegans strain CB5586. The experiment is described as follows: Phenotypic lifespan screening in C. elegans. The class given is in vivo. To be noted: for Statistically Significant Result: 10 mg/ml compared to DMSO control; for effect on chronological lifespan: 0.1 and 10 mg/ml tested; for mean lifespan: DMSO control 13.23. The protocol: Dilutions of the test formulations were applied to individual populations of C. elegans and the lifespan of each population was monitored. Any changes in the lifespan of an individual population compared to a control population were recorded and correlated to the respective test formulation (N356 or N357) and the respective dilution (0.1 mg/ml, 1 mg/ml, and 10 mg/ml).
The N256 and N357 formulations were each prepared as individual 100 mg/ml stock solutions in dimethyl sulfoxide (DMSO). Serial dilutions of each stock solution were then prepared at 0.1 mg/ml, 1 mg/ml, and 10 mg/ml in DMSO. Control solutions of DMSO only were also prepared. Synchronous aged adult populations of C. elegans strain CB5586 worms were prepared. The CB5586 strain comprises a pharyngeal GFP (green fluorescent protein) tag and a mutation in the bus-5 gene. The pharyngeal GFP tag allows for fluorescent images of the worm populations to be taken. The mutation in the bus-5 gene causes the loss of normal cuticle antigens that permits the cuticle of the worms to become permeable to the test formulations and allow direct uptake of the test formulations to avoid interaction of the test formulations with protective mechanisms of the gut channel. Each serial dilution of each test formulation was added to a separate population of the prepared worms. The control solutions were also added to separate populations of the prepared worms. The populations of the prepared worms were then maintained on standard nematode growth media (NGM) agar plates at 20° C. with sufficient food (Escherichia coli strain OP-50).
Each worm population was then monitored by fluorescent imaging to determine the number of living and dead worms as a function of time. The fluorescent imaging was analyzed by software that recognized and counted worms based on their fluorescent intensity compared to background fluorescence. […] The ability to distinguish between living and dead worms allowed the number of living worms and a cumulative number of dead worms to be monitored against time. Worm populations from a selection of fluorescent images were manually checked to verify that the software had accurately counted the number of living and dead worms.
The counts of the living and dead worms as a function of time were then analyzed for each of the worm populations and used to prepare Kaplan-Meier survival curves and associated statistics for each of the worm populations. […] The median lifespan is shown as the length of time after the last mitotic division that 50% of the test population remains viable when compared to the control population. The maximum lifespan extension is shown as the length of time after the last mitotic division that 5% of the test population remains viable when compared to the control population.
The counts of the living and dead worms as a function of time and the Kaplan-Meier survival curves and the associated statistics were then analyzed for each of the worm populations. The analysis included determining mean and median lifespan. The analysis included a non-parametric test, the Log-Rank test, which compares two survival functions for the overall lifespan assay and provides a reliable p-value summarizing the whole experiment. The analysis also included Fisher's Exact Test that calculated the significance of survival function comparisons at multiple specific time points throughout the experiment, rather than for the overall lifespan. The results of the analysis are shown below in Tables 10-17.
Phenotypic screening was carried out as described in EXAMPLE 2 for various individual compounds of the N357 formulation. […] Alpha lipoic acid was sourced from PureBulk™ USA as a racemic mix of R and S stereoisomers and was assigned a sample number of N198. Hesperidin was sourced from Sigma Aldrich at ≥80% purity and was assigned a sample number of N347. […]

Regarding `Cn1c(=O)c2c(ncn2C)n(C)c1=O` [caffeine], in experiment [1], the “mTOR inhibition” value is given as “inhibit mTOR”; the “mTOR inhibition, mitophagy and mitochondrial turnover” value was “inhibit mTOR, up-regulate mitophagy, and increase the rate of mitochondrial turnover”.

`COc1cc(/C=C/C(=O)CC(=O)/C=C/c2ccc(O)c(OC)c2)ccc1O` [Curcumin, curcumin]: the “PPARγ Fold-Activation” value in experiment [2] (0.007 μg/ml) turned out to be 1.0; in experiment [2] (0.022 μg/ml), 1.0; in experiment [2] (0.067 μg/ml), 0.95; in experiment [2] (0.20 μg/ml), 0.96; in experiment [2] (0.60 μg/ml), 0.90; in experiment [2] (1.81 μg/ml), 1.1. Also, the “PPARδ Fold-Activation” value in experiment [3] (0.007 μg/ml) came out at 1.2; in experiment [3] (0.022 μg/ml) it was 1.2; in experiment [3] (0.067 μg/ml) it was 1.0; in experiment [3] (0.20 μg/ml), 1.2; in experiment [3] (0.60 μg/ml), 1.3; in experiment [3] (1.81 μg/ml), 1.0. The figures for the “NF-κB % Inhibition” value in experiment [4] (0.007 μg/ml) and in experiment [4] (0.60 μg/ml) were −10% and 30%, respectively. Also, the “mTOR inhibition” value in experiment [1] is reported as “inhibit mTOR”. Besides, in experiment [1], the “mTOR inhibition, mitophagy and mitochondrial turnover” value was “inhibit mTOR, up-regulate mitophagy, and increase the rate of mitochondrial turnover”. In addition, the “PPARα Fold-Activation” value came to 1.3 in experiment [5] (0.007 μg/ml); 1.3 in experiment [5] (0.022 μg/ml); 1.3 in experiment [5] (0.067 μg/ml); 1.1 in experiment [5] (0.20 μg/ml); 1.0 in experiment [5] (0.60 μg/ml); 0.86 in experiment [5] (1.81 μg/ml).

Turning to `COc1ccc([C@@H]2CC(=O)c3c(O)cc(O)cc3O2)cc1O` [Hesperetin, (S)-2,3-Dihydro-5,7-dihydroxy-2-(3-hydroxy-4-methoxyphenyl)-4H-1-benzopyran-4-one], the “PPARγ Fold-Activation” value stood at 1.0 in experiment [2] (0.043 μg/ml), 1.1 in experiment [2] (0.389 μg/ml), 1.1 in experiment [2] (1.167 μg/ml) and 0.55 in experiment [2] (3.5 μg/ml). Besides, the “PPARδ Fold-Activation” value in experiment [3] (0.043 μg/ml) was 1.1; in experiment [3] (0.389 μg/ml) it was 1.0; in experiment [3] (1.167 μg/ml), 1.1; in experiment [3] (3.5 μg/ml), 0.89. Further, the “PPARα Fold-Activation” value amounted to 1.4 in experiment [5] (0.043 μg/ml), 1.2 in experiment [5] (0.389 μg/ml), 1.0 in experiment [5] (1.167 μg/ml) and 0.79 in experiment [5] (3.5 μg/ml).

`O=C(O[C@@H]1Cc2c(O)cc(O)cc2O[C@@H]1c1cc(O)c(O)c(O)c1)c1cc(O)c(O)c(O)c1` [EGCG, epigallocatechin gallate]: the “NF-κB % Inhibition” value is 10% in experiment [4] (0.033 μg/ml); 18% in experiment [4] (0.098 μg/ml); 0.10% in experiment [4] (0.30 μg/ml); 8.4% in experiment [4] (0.89 μg/ml); −15% in experiment [4] (2.67 μg/ml); −29% in experiment [4] (8 μg/ml). In experiment [1], the “mTOR inhibition” value is recorded as “inhibit mTOR”. In addition, in experiment [1], the “mTOR inhibition, mitophagy and mitochondrial turnover” value is “inhibit mTOR, up-regulate mitophagy, and increase the rate of mitochondrial turnover”.

In the case of `O=c1c(O)c(-c2ccc(O)c(O)c2)oc2cc(O)cc(O)c12` [Quercetin, 2-(3,4-dihydroxyphenyl)-3,5,7-trihydroxy-4H-chromen-4-one], the “NF-κB % Inhibition” value in experiment [4] (0.84 μg/ml) is reported as −6%. In addition, in experiment [6], the “Statistically Significant Result” value was “No statistical difference” and the “effect on chronological lifespan” value is on record as “significant negative effect on chronological lifespan”.

Take `C[C@@H]1O[C@@H](OC[C@H]2O[C@@H](Oc3c(-c4ccc(O)c(O)c4)oc4cc(O)cc(O)c4c3=O)[C@H](O)[C@@H](O)[C@@H]2O)[C@H](O)[C@H](O)[C@H]1O` [Rutin, 2-(3,4-dihydroxyphenyl)-5,7-dihydroxy-3-[α-L-rhamnopyranosyl-(1→6)-β-D-glucopyranosyloxy]-4H-chromen-4-one]: the “NF-κB % Inhibition” value in experiment [4] (1.11 μg/ml) was 10%.

As to `COc1ccc([C@@H]2CC(=O)c3c(O)cc(O[C@@H]4O[C@H](CO[C@@H]5O[C@@H](C)[C@H](O)[C@@H](O)[C@H]5O)[C@@H](O)[C@H](O)[C@H]4O)cc3O2)cc1O` [N347, Hesperidin], in experiment [6] (0.1 mg/ml), the “extension of lifespan (Kaplan-Meier figure)” value is “about 10%” and the “mean lifespan” value stood at 14.55 days. Further, the “% Change in Mean Lifespan” value in experiment [6] (0.1 mg/ml compared to DMSO control) was “+10%”. Further, in experiment [6], the “Statistically Significant Result” value is recorded as “No statistical difference”; the “effect on chronological lifespan” value is “significant positive and dose-dependent increase of chronological lifespan”. Besides, the “mean lifespan” value in experiment [6] (10 mg/ml) came out at 14.19 days.
